Values of other authors, collected in US20100055214A1, “METHOD FOR INCREASING BLOOD FLOW TO MAMMALIAN SKELETAL MUSCLE BY ADMINISTERING L-ARGNINE, CRATAEGUS EXTRACT, ARTICHOKE FLAVONOIDS AND GYMNOSTEMMA PENTAPHYLLUM EXTRACT” (H3 FORMULATIONS LTD., priority 2006, published 2010).

Details: in vivo

In the case of `N=C(N)NCCC[C@H](N)C(=O)O` [L-arginine], the NO production is listed as “increase” and the aerobic exercise capacity is listed as “increase aerobic exercise capacity”.
